Square brackets hold non-standard residues; d marks the D form. Peptide text beside a SMILES is read from it.
Legend:
[1] = tolerability of Peptide T therapy; format: in vivo, human; settings: patients
Source text: Cyclosporine is an anti-inflammatory drug that inhibits lymphocyte proliferation by inhibiting IL-2 and IFN γ gene transcription by binding to and inactivating cyclophilin, an isomerase required for signal transduction (Halloran et al, Clin. Biochem. 24 3-7 (1991)). […] Cyclosporine induced side effects include renal tubular atrophy, nephrotoxicity, hypertension, hirsutism, gingival hypertrophy, tremors, convulsions and paresthesia (Briggs J.D. Immunol. Lett. 29 89-94 (1991)).

PBMC = assay: mitogen-induced lymphoproliferation (Example 17, 20); format: cell-based, human; settings: Con A-induced proliferation measured daily, 10^-9 M; FIG. 3
Protocol: Concanavalin A (Con A), pokeweed mitogen, (PWM) and phytohaemagglutin-P (PHA-P) were obtained from Sigma Chemical Co. (St. Louis, Mo., U.S.A.). Peptide T was synthesised by Carlbiotech Ltd (Copenhagen, Denmark) and supplied as the chloride salt at 8.5 mg/ml in 0.9% benzyl alcohol as a preservative and was stored at 4° C. Peptide T was diluted to working solutions in culture medium (RPMI). Dilute solutions of Peptide T were prepared fresh from stock Peptide T for each experiment. ^3 H-thymidine (5 Ci/mmol) was obtained from Amersham.
Isolation of PBMC: Whole blood from healthy, adult volunteers was drawn into heparin and peripheral blood mononuclear cells (PBMC) isolated by density gradient centrifugation on HISTOPAQUE™ (Sigma Chemical Co). PBMC were removed from the interface, washed three times in RPMI containing gentamycin (100 μg/ml) and resuspended to 1×10^6 PBMC/ml in RPMI containing 10% foetal bovine serum and gentamycin. 10^5 PBMC were cultured in the presence of 100 μl of mitogen suspension in 96 well plates. […] The amount of incorporated ^3 H-thymidine was determined using a BECKMAN™ LS8000 liquid scintillation counter and proliferation expressed as either counts per minute (cpm) or as a proliferation index (PI). […]
10^5 PBMC were cultured in the presence of PWM, Con A or PHA (see Example 17). […] Data were analysed by two sample ANOVA using 95% confidence limits.

[2] = pharmacokinetics of Peptide T; settings: following administration in vivo
Source text: Initial research in this area was focused on the CNS for two reasons: a high concentration of CD4 molecules was found on neurons and one of the major effect of HIV infection is the development of neurocognitive dysfunction.
1. Macrophages may be more sensitive to Peptide T than are T cells, since T cells receive many more potential activating signals than the CD4/MHC II interaction. Thus macrophages may be down regulated by Peptide T administration on the first day of in vitro culture inhibiting their ability to present mitogens and antigens to T cells. B cells can act as APC in place of macrophages when presenting antigen, but not when presenting mitogens which are antigen non-specific (explaining the results of Table III). Resting B cells are resistant to Peptide T as they are CD4 negative. In the presence of a single dose of Peptide T, they could present antigen to T cells allowing proliferation of PBMC in response to antigen. When Peptide T is given on a daily basis in cultured T cells, which may be less sensitive to the effects of Peptide T, then macrophages may be inhibited. Daily administration of Peptide T in vivo, may not function as it does on a daily basis in vitro, since the half life of Peptide T in vivo is shorter than in vitro. In vitro serum supplements are heat inactivated to destroy proteolytic enzymes which actively degrade Peptide T in vivo. […]

[3] = test system: MO/MAC cytotoxicity against K562 target cells; assay: macrophage cytotoxicity assay; format: cell-based, human; settings: Peptide T added with target cells (step 2) or every day; FIG. 7
Protocol: The MO/MAC cytotoxicity assay is a two step assay. After isolation of adherent cells (mainly MO/MAC) from PBMC, MO/MAC are activated by lymphokines (including IFN gamma and LPS. Subsequent to washing which removes activators, ^3 H-thymidine labelled K562 target cells were added to activated MO/MAC and incubated for 3 days. The degree of cytotoxicity was proportional to the amount of radioactive label released into the culture supernatant, is shown in the following scheme: […]

[4] = test system: Mice bearing Meth A ascites tumours; assay: LPS toxicity in Meth A ascites tumour bearing mice; format: in vivo, mouse; settings: 100 μg LPS s.c. + 1 mg analogue; for % mice surviving 41 hours: LPS + BSA 60; for % mice with diarrhoea at 19 hrs / % mice with exudate at 19 hrs: LPS + BSA 100
Protocol: Mice bearing Meth A ascites tumours were given 100 μg LPS subcutaneously with either bovine serum albumin (BSA) or peptide T analogue (504 or 505, 1 mg). The number of animals showing signs of LPS toxicity (diarrhoea, exudate from the eyes and general level of activity) in each group was recorded at 19, 24 and 41 hours after injection. At the completion of the experiment the number of surviving animals was recorded (see Table II below) and the survivors bled for later determination of TNF, IL-1 , IL-6 and RNI levels.

human neutrophils [5] = assay: TNF-induced neutrophil chemiluminescence; format: cell-based; settings: FIG. 13
Protocol: (§1) Neutrophils were isolated from whole blood from healthy blood donors. Separation was achieved by the rapid-single-step method of centrifugation of whole blood on FICOLL-HYPAQUE™. These were >99% viable and usually >98% pure.
TNF was a recombinant product produced in E. coli. Peptide T and analogue 505 (D-Ser-Ser-D-Thr-Thr-D-Thr-Thr-Tyr-D-Thr) were resuspended in Hank's Balanced Salt Solution (HBSS).
(§2) To 100 μl of 500-1000 U/ml of TNF was added 10 μl of peptide and after 5 min 100 μl of 1×10^7 neutrophils/ml was added. The cells further incubated at 37° C. /20 min and then tested for chemiluminescence activity. In some cases an agonist such as fMLP (10^-7 M) was added. Chemiluminescence was measured in a luminometer (LKB). The results for Peptide T are presented in FIG. 12 as peak rate of CL release. Lucigenin-dependent chemiluminescence was measured: this represents superoxide measurement. In another set of experiments the effects of analogue 505 on the LPS-induced neutrophil chemiluminescence were examined. In this case the LPS was essentially substituted for the TNF. The concentration of LPS was 0.005 μg/ml.

human neutrophils [6] = assay: LPS-induced neutrophil chemiluminescence; format: cell-based; settings: LPS 0.005 μg/ml; FIG. 14
Protocol: as §1, §2

## C[C@@H](N)C(=O)N[C@@H](CO)C(=O)N[C@H](C(=O)N[C@H](C(=O)N[C@H](C(=O)N[C@@H](CC(N)=O)C(=O)N[C@@H](Cc1ccc(O)cc1)C(=O)N[C@H](C(N)=O)[C@@H](C)O)[C@@H](C)O)[C@@H](C)O)[C@@H](C)O [Peptide T, D-Ala-Ser-Thr-Thr-Thr-Asn-Tyr-Thr-Amide]
[1]
  side effects attributable to Peptide T therapy: no significant side effects
PBMC
  cytotoxicity for responding lymphocytes: not cytotoxic
[2]
  peak plasma concentrations: 55 nM
[3]
  cytotoxicity of activated MO/MAC: inhibit the cytotoxicity

## C[C@H](O)[C@@H](NC(=O)[C@H](Cc1ccc(O)cc1)NC(=O)[C@H](CC(N)=O)NC(=O)[C@H](NC(=O)[C@@H](NC(=O)[C@H](NC(=O)[C@H](CO)NC(=O)[C@@H](C)N)[C@H](C)O)[C@@H](C)O)[C@H](C)O)C(N)=O [compound 504, H-D-Ala-Ser-D-Thr-Thr-D-Thr-Asn-Tyr-D-Thr-NH2]
[4]
  % mice surviving 41 hours: 100%
  % mice with diarrhoea at 19 hrs: 40%
  % mice with exudate at 19 hrs: 60%

## C[C@H](O)[C@@H](NC(=O)[C@H](Cc1ccc(O)cc1)NC(=O)[C@@H](NC(=O)[C@H](NC(=O)[C@@H](NC(=O)[C@H](NC(=O)[C@H](CO)NC(=O)[C@H](N)CO)[C@H](C)O)[C@@H](C)O)[C@H](C)O)[C@@H](C)O)C(N)=O [compound 505, H-D-Ser-Ser-D-Thr-Thr-D-Thr-Thr-Tyr-D-Thr-NH2] (H-[dS]S[dT]T[dT]TY[dT]-NH2)
Human neutrophils [5]
  TNF priming and activation of human neutrophils (chemiluminescence): inhibits TNF priming and activation of human neutrophils
[4]
  % mice surviving 41 hours: 100%
  % mice with diarrhoea at 19 hrs: 40%
  % mice with exudate at 19 hrs: 20%
Human neutrophils [6]
  LPS activation of human neutrophils (chemiluminescence): inhibits LPS activation of human neutrophils
